Paper PMC9108036 (Biomedicine & Pharmacotherapy, 2022)
Read-outs that look alike come from different tables or passages of the source.

What was measured:
[1] = system: Omicron SARS-CoV-2 lentiviral pseudovirus; assay type: cell-based
in vitro = assay type: cell-based; conditions: human
[2] = Omicron pseudovirus, CaCo2 cells

Compound | inhibition of Omicron pseudovirus entry (in words) [1, 2] | viability at 10 µM (in vitro) | inhibition of Omicron pseudovirus entry (in words) [1]
CN(C)CCCN1c2ccccc2Sc2ccc(Cl)cc21 [Chlorpromazine] | enhanced inhibitory effects | 88.6 ± 4.3% | –
COC(=O)C1=C(C)NC(C)=C(C(=O)OCCCN2CCC(c3ccccc3)(c3ccccc3)CC2)[C@@H]1c1cccc([N+](=O)[O-])c1 [Dexniguldipine] | – | – | strong inhibition
CN(C)CCCN1c2ccccc2CCc2ccc(Cl)cc21 [Clomipramine] | – | – | enhanced inhibitory effects
CC(=O)O[C@@]12CO[C@@H]1C[C@H](O)[C@@]1(C)C(=O)[C@H](O)C3=C(C)[C@@H](OC(=O)[C@H](O)[C@@H](NC(=O)OC(C)(C)C)c4ccccc4)C[C@@](O)([C@@H](OC(=O)c4ccccc4)[C@H]21)C3(C)C [Docetaxel] | – | 80.8 ± 3% | –
Clc1ccc(COC(Cn2ccnc2)c2ccc(Cl)cc2Cl)cc1 (centres unmarked) [Econazole] | – | 88.2 ± 1.8% | –
Nc1nc(Cl)nc2c1ncn2[C@H]1C[C@H](O)[C@@H](CO)O1 [Cladribine] | – | 108 ± 2.7% | –
CN1CCN(CCCN2c3ccccc3Sc3ccc(C(F)(F)F)cc32)CC1 [Trifluoperazine] | enhanced inhibitory effects | – | –
CCCCC[C@H](O)/C=C/[C@H]1[C@H](O)CC(=O)[C@@H]1CCCCCCC(=O)O [Alprostadil] | – | 100 ± 2.9% | –
CSc1ccc2c(c1)N(CCC1CCCCN1C)c1ccccc1S2 (centres unmarked) [Thioridazine] | – | – | enhanced inhibitory effects
O=c1[nH]cc(F)c(=O)[nH]1 [Fluorouracil] | – | 97 ± 1.7% | –
